This experiment concerns the target T1, Human pyruvate kinase R (PKR) (Homo sapiens, UniProt P30613).
T1 construct: Human pyruvate kinase R (PKR), residues 14-574; 6x-His (N, cleaved yes); 8x-Arg (N, cleaved yes); SUMO (N, cleaved yes); host or cells: E. coli
Nature of the experiment: Biochemical assay for activation of pyruvate kinase R (Kinase-Glo luminescence measurement of ATP generation). To be noted: for AC50: PKR biochemical assay, 0.1 nM PKR, 0.3 mM ADP, 2 mM FBP, 0.1 mM PEP; for Emax: maximal activation level relative to the activation level achieved by the literature compound AG-348 @ 10 μM. The essentials:
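Recombinant human PKR (residues 14-574), E. coli-expressed with His-Arg-SUMO tag removed, purified by Ni-NTA, anion exchange and size exclusion. Activation measured as ATP generation via Kinase-Glo luminescence.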

The structures appear in SMILES notation.

T1 sequence (P30613 14-574): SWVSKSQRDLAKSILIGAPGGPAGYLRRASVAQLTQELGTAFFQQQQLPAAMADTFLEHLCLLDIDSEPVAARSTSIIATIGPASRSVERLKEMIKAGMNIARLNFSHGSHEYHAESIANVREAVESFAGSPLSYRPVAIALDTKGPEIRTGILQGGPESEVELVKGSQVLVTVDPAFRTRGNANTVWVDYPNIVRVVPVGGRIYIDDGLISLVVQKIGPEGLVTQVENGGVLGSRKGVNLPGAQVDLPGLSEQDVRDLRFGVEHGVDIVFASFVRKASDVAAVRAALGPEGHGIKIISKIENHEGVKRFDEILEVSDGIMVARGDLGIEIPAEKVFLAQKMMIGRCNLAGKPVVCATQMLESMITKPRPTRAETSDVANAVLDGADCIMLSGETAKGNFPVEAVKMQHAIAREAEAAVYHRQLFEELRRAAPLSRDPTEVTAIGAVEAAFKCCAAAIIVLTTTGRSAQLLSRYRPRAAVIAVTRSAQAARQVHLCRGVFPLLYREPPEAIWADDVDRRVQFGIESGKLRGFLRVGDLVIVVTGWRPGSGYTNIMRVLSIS

For the compound `Cc1nc(CNC(=O)NCc2nc(C)nn2-c2ccc3cccnc3c2)n(-c2ccc3cccnc3c2)n1` [Compound 84, 1,3-bis({[3-methyl-1-(quinolin-7-yl)-1H-1,2,4-triazol-5-yl]methyl})urea], the AC50 is 520 nM and the Emax worked out at 94%.

In turn, `Cc1nc(CNC(=O)N(C)Cc2ncnn2-c2ccc3cccnc3c2)n(-c2ccc(Cl)c(F)c2)n1` [Compound 54, 3-{[1-(4-chloro-3-fluorophenyl)-3-methyl-1H-1,2,4-triazol-5-yl]methyl}-1-methyl-1-{[1-(quinolin-7-yl)-1H-1,2,4-triazol-5-yl]methyl}urea] gave an AC50 of 85 nM and an Emax of 71%.

As to `O=C(NCc1ncnn1-c1ccc(Cl)c(F)c1)N(CCF)Cc1ncnn1-c1ccc(Cl)c(F)c1` [Compound 38, 1,3-bis({[1-(4-chloro-3-fluorophenyl)-1H-1,2,4-triazol-5-yl]methyl})-1-(2-fluoroethyl)urea], the AC50 worked out at 55 nM and the Emax worked out at 53%.

Compound `COc1ccc(-n2ncnc2CNC(=O)NCc2ncnn2-c2ccc(OC)nc2)cn1` [Compound 117, 1,3-bis({[1-(6-methoxypyridin-3-yl)-1H-1,2,4-triazol-5-yl]methyl})urea] yielded an AC50 of 2600 nM and an Emax of 53%.

As for `CCc1nc(CNC(=O)NCc2ncnn2-c2ccc3cccnc3c2)n(-c2ccc(Cl)c(F)c2)n1` [Compound 45, 1-{[1-(4-chloro-3-fluorophenyl)-3-ethyl-1H-1,2,4-triazol-5-yl]methyl}-3-{[1-(quinolin-7-yl)-1H-1,2,4-triazol-5-yl]methyl}urea], half-maximal activity (AC50) was put at 110 nM and the Emax came to 80%.

`Cc1cc(-n2nnnc2CNC(=O)NCc2nnnn2-c2ccc(Cl)c(C)c2)ccc1Cl` [Compound 59, 1,3-bis({[1-(4-chloro-3-methylphenyl)-1H-1,2,3,4-tetrazol-5-yl]methyl})urea] came in with an AC50 of 1200 nM and a maximum response (Emax) of 86%.

The compound `COc1cncc(-n2ncnc2CNC(=O)NCc2nc(C)nn2-c2ccc(Cl)c(F)c2)c1` [Compound 134, 1-{[1-(4-chloro-3-fluorophenyl)-3-methyl-1H-1,2,4-triazol-5-yl]methyl}-3-{[1-(5-methoxypyridin-3-yl)-1H-1,2,4-triazol-5-yl]methyl}urea] displayed an AC50 of 170 nM and an Emax of 110%.

`CCN(Cc1ncnn1-c1ccc(Cl)c(F)c1)C(=O)NCc1nnnn1-c1ccc(Cl)c(F)c1` [Compound 36, 3-{[1-(4-chloro-3-fluorophenyl)-1H-1,2,3,4-tetrazol-5-yl]methyl}-1-{[1-(4-chloro-3-fluorophenyl)-1H-1,2,4-triazol-5-yl]methyl}-1-ethylurea] had a concentration at half-maximal activity (AC50) of 130 nM and an Emax of 95%.

Compound `Cc1nc(CNC(=O)NCc2ncnn2-c2ccc3scnc3c2)n(-c2ccc(Cl)c(F)c2)n1` [Compound 17, 1-{[1-(1,3-benzothiazol-5-yl)-1H-1,2,4-triazol-5-yl]methyl}-3-{[1-(4-chloro-3-fluorophenyl)-3-methyl-1H-1,2,4-triazol-5-yl]methyl}urea] gave an AC50 of 13 nM and an Emax of 82%.

`O=C1N(Cc2ncnn2-c2ccc(Cl)c(F)c2)CCCN1Cc1ncnn1-c1ccc(Cl)c(F)c1` [Compound 6, 1,3-bis({[1-(4-chloro-3-fluorophenyl)-1H-1,2,4-triazol-5-yl]methyl})-1,3-diazinan-2-one] came in with an AC50 of 5.4 nM and an Emax of 33%.

In turn, `Cc1nc(CNC(=O)NCc2ncnn2-c2ccc3c(c2)ncn3C)n(-c2ccc(Cl)c(F)c2)n1` [Compound 44, 1-{[1-(4-chloro-3-fluorophenyl)-3-methyl-1H-1,2,4-triazol-5-yl]methyl}-3-{[1-(1-methyl-1H-1,3-benzodiazol-5-yl)-1H-1,2,4-triazol-5-yl]methyl}urea] displayed an AC50 of 81 nM and an Emax of 94%.

Turning to `O=C(NCc1nnnn1-c1ccc(Cl)cc1F)NCc1nnnn1-c1ccc(Cl)cc1F` [Compound 25, 1,3-bis({[1-(4-chloro-2-fluorophenyl)-1H-1,2,3,4-tetrazol-5-yl]methyl})urea], the AC50 was 2500 nM and the Emax is 80%.

`Cc1ccc(-n2nnnc2CNC(=O)NCc2nnnn2-c2ccc(C)c(F)c2)cc1F` [Compound 58, 1,3-bis({[1-(3-fluoro-4-methylphenyl)-1H-1,2,3,4-tetrazol-5-yl]methyl})urea] came in with an AC50 of 220 nM and an Emax of 88%.

Compound `Cc1nc(CNC(=O)NCC2=NC3(CC3)C(=O)N2Cc2ccc(F)cc2)n(-c2ccc(Cl)c(F)c2)n1` [Compound 106, 1-{[1-(4-chloro-3-fluorophenyl)-3-methyl-1H-1,2,4-triazol-5-yl]methyl}-3-({6-[(4-fluorophenyl)methyl]-7-oxo-4,6-diazaspiro[2.4]hept-4-en-5-yl}methyl)urea] came in with a half-maximal activity concentration (AC50) of 71 nM and an Emax of 125%.

On to `O=C(NCc1ncnn1-c1ccc(F)c(Cl)c1)NCc1ncnn1-c1ccc(F)c(Cl)c1` [Compound 64, 1,3-bis({[1-(3-chloro-4-fluorophenyl)-1H-1,2,4-triazol-5-yl]methyl})urea], for which the activity was half-maximal at 120 nM (AC50) and the maximum response (Emax) came out at 46%.

For the compound `Cc1nc(CNC(=O)NCc2ncnn2-c2cnc3ccccc3c2)n(-c2ccc(Cl)c(F)c2)n1` [Compound 126, 1-{[1-(4-chloro-3-fluorophenyl)-3-methyl-1H-1,2,4-triazol-5-yl]methyl}-3-{[1-(quinolin-3-yl)-1H-1,2,4-triazol-5-yl]methyl}urea], the AC50 was 67 nM and the Emax was determined as 84%.

As for `O=C(NCc1ncnn1CC1CCOCC1)NCc1ncnn1-c1ccc(Cl)c(F)c1` [Compound 7, 3-{[1-(4-chloro-3-fluorophenyl)-1H-1,2,4-triazol-5-yl]methyl}-1-({1-[(oxan-4-yl)methyl]-1H-1,2,4-triazol-5-yl}methyl)urea], the AC50 was 44 nM and the Emax turned out to be 46%.

`O=C(NCC1=NC2(CC2)C(=O)N1Cc1ccc(F)cc1)NCc1ncnn1-c1ccc(Cl)c(F)c1` [Compound 109, 1-{[1-(4-chloro-3-fluorophenyl)-1H-1,2,4-triazol-5-yl]methyl}-3-({6-[(4-fluorophenyl)methyl]-7-oxo-4,6-diazaspiro[2.4]hept-4-en-5-yl}methyl)urea] showed an AC50 of 110 nM and an Emax of 96%.

As for `Cc1nc(CNC(=O)NCc2nc(C)nn2-c2ccc3cccnc3c2)n(-c2ccc(Cl)c(F)c2)n1` [Compound 87, 1-{[1-(4-chloro-3-fluorophenyl)-3-methyl-1H-1,2,4-triazol-5-yl]methyl}-3-{[3-methyl-1-(quinolin-7-yl)-1H-1,2,4-triazol-5-yl]methyl}urea], the activity was half-maximal at 83 nM (AC50) and the Emax worked out at 87%.

For `O=C(NCc1ncnn1-c1ccc2cccnc2c1)NCc1nc(CF)nn1-c1ccc(Cl)c(F)c1` [Compound 104, 1-{[1-(4-chloro-3-fluorophenyl)-3-(fluoromethyl)-1H-1,2,4-triazol-5-yl]methyl}-3-{[1-(quinolin-7-yl)-1H-1,2,4-triazol-5-yl]methyl}urea], the activity was half-maximal at 36 nM (AC50) and the Emax stood at 80%.

In turn, `CC1(C)CC(Cn2ncnc2CNC(=O)NCc2ncnn2-c2ccc(Cl)c(F)c2)CCO1` (stereo not drawn) [Compound 13, 3-{[1-(4-chloro-3-fluorophenyl)-1H-1,2,4-triazol-5-yl]methyl}-1-({1-[(2,2-dimethyloxan-4-yl)methyl]-1H-1,2,4-triazol-5-yl}methyl)urea] displayed an AC50 of 1000 nM and a maximum response (Emax) of 55%.

As to `O=C(NCc1nnnn1-c1ccc(Cl)c(F)c1)NCc1nnnn1-c1ccc(Cl)c(F)c1` [Compound 63, 1,3-bis({[1-(4-chloro-3-fluorophenyl)-1H-1,2,3,4-tetrazol-5-yl]methyl})urea], the activity was half-maximal at 63 nM (AC50) and the Emax was determined as 99%.

Consider `Cc1nc(CNC(=O)NCc2ncnn2-c2ccc3ncc(F)cc3c2)n(-c2ccc(Cl)c(F)c2)n1` [Compound 46, 3-{[1-(4-chloro-3-fluorophenyl)-3-methyl-1H-1,2,4-triazol-5-yl]methyl}-1-{[1-(3-fluoroquinolin-6-yl)-1H-1,2,4-triazol-5-yl]methyl}urea], for which the AC50 came out at 38 nM and the maximal effect (Emax) came out at 74%.

Take `CCc1ccc(-n2ncnc2CNC(=O)NCc2nc(C)nn2-c2ccc(Cl)c(F)c2)cn1` [Compound 141, 1-{[1-(4-chloro-3-fluorophenyl)-3-methyl-1H-1,2,4-triazol-5-yl]methyl}-3-{[1-(6-ethylpyridin-3-yl)-1H-1,2,4-triazol-5-yl]methyl}urea]: the AC50 is 140 nM and the Emax amounted to 71%.

Regarding `CC(C)c1nc(CNC(=O)NCc2ncnn2-c2ccc3cccnc3c2)n(-c2ccc(Cl)c(F)c2)n1` [Compound 42, 1-{[1-(4-chloro-3-fluorophenyl)-3-(propan-2-yl)-1H-1,2,4-triazol-5-yl]methyl}-3-{[1-(quinolin-7-yl)-1H-1,2,4-triazol-5-yl]methyl}urea], the activity was half-maximal at 540 nM (AC50) and the Emax came to 74%.

Consider `COc1ccc(-n2ncnc2CNC(=O)NCc2nc(C)nn2-c2ccc(Cl)c(F)c2)nc1` [Compound 130, 1-{[1-(4-chloro-3-fluorophenyl)-3-methyl-1H-1,2,4-triazol-5-yl]methyl}-3-{[1-(5-methoxypyridin-2-yl)-1H-1,2,4-triazol-5-yl]methyl}urea], for which the concentration at half-maximal activity (AC50) amounted to 300 nM and the Emax stood at 84%.

In turn, `COc1ccc(-n2ncnc2CNC(=O)NCc2nc(C)nn2-c2ccc(Cl)c(F)c2)cn1` [Compound 123, 3-{[1-(4-chloro-3-fluorophenyl)-3-methyl-1H-1,2,4-triazol-5-yl]methyl}-1-{[1-(6-methoxypyridin-3-yl)-1H-1,2,4-triazol-5-yl]methyl}urea] yielded an AC50 of 140 nM and a maximum response (Emax) of 70%.

The values are drawn from patent US20230278984A1 (Global Blood Therapeutics, Inc., priority 2020, published 2023).
